One assay relates to MCF7. Description: Antiproliferative activity against human MCF7 cells by MTT colorimetric assay. Format: functional, cell-based.
The test system of another assay is Jurkat. Description: Antiproliferative activity against human Jurkat cells by MTT colorimetric assay. Format: functional, cell-based. For orientation: Formazan colour is commonly taken as a measure of viable cells.
In assay [1] the test system is A549. As to the kind of experiment: Antiproliferative activity against human A549 cells by MTT colorimetric assay. The format is functional, cell-based.
Another assay has as its system MRC5. Description: Antiproliferative activity against human MRC5 cells by MTT colorimetric assay. The format is functional, cell-based.
The test system of the next assay is MDA-MB-231. As to the kind of experiment: Antiproliferative activity against human MDA-MB-231 cells by MTT colorimetric assay. Format: functional, cell-based.
Another assay relates to HL-60. Description: Antiproliferative activity against human HL-60 cells by MTT colorimetric assay. The format is functional, cell-based.
The subject of assay [2] is Raji. Description: Antiproliferative activity against human Raji cells by MTT colorimetric assay. The format is functional, cell-based.
A further assay relates to HeLa. As to the kind of experiment: Antiproliferative activity against human HeLa cells by MTT colorimetric assay. Format: functional, cell-based.
The subject of assay [3] is K562. Description: Antiproliferative activity against human K562 cells by MTT colorimetric assay. Format: functional, cell-based.
For assay [4], the system named is K562. As to the kind of experiment: Induction of cell cycle arrest in human K562 cells assessed as decrease in accumulation of cells at subG1 phase measured after 72 hrs by PI staining based flow cytometry analysis relative to control. Format: functional. Further details: scale not given: the % may be the effect or the level left. For orientation: A flow cytometer gives signals particle by particle.

Assay [5] concerns K562. Description: Induction of apoptosis in human K562 cells assessed as morphological changes measured after 72 hrs relative to control. The format is functional.
Another assay relates to Cell membrane. As to the kind of experiment: Induction of cell membrane damage in human K562 cells measured after 72 hrs by acridine orange and ethidium bromide staining based analysis relative to control. Format: cell membranes.
Assay [6] deals with K562. As to the kind of experiment: Induction of cell cycle arrest in human K562 cells assessed as decrease in accumulation of cells at S phase measured after 72 hrs by PI staining based flow cytometry analysis relative to control. Format: functional. Further details: scale not given: the % may be the effect or the level left.
Assay [7] relates to K562. Description: Induction of cell cycle arrest in human K562 cells assessed as increase in accumulation of cells at G2/M phase measured after 72 hrs by PI staining based flow cytometry analysis relative to control. Format: functional.
Assay [8] deals with A549. As to the kind of experiment: Potency index, ratio of Doxorubicin IC50 to test compound IC50 for antiproliferative activity against human A549 cells by MTT colorimetric assay. Format: functional.
In assay [9] the test system is Raji. Description: Potency index, ratio of Doxorubicin IC50 to test compound IC50 for antiproliferative activity against human Raji cells by MTT colorimetric assay. The format is functional.

A word on the IC50: it is the point on the concentration scale where inhibition reaches its midpoint. On to `O=C1C[C@H]2O[C@H](C(=O)c3cccs3)[C@H](O)[C@H]2O1`, for which the half-maximal inhibitory concentration (IC50) in the assay on MCF7 was 23.4 µM; in the assay on Jurkat, 25.3 µM; in the assay with A549 [1], 14.9 µM; in the assay with MRC5 it was over 100 µM; with MDA-MB-231, 8.93 µM; in the assay with HL-60 it was 39.6 µM. The IC50 with Raji [2] was determined as 11.4 µM; in the assay on HeLa, 12.4 µM; in the assay with K562 [3] it was 18.4 µM.
Turning to `CC1(C)O[C@H]2O[C@H]([C@H](O)c3cccs3)[C@H](O)[C@H]2O1`, the IC50 in the assay on MCF7 was 4.34 µM; in the assay with Jurkat it was 1.06 µM; with A549 [1] it was 7.32 µM; in the assay with MRC5, over 100 µM; in the assay with MDA-MB-231, 8.12 µM; in the assay with HL-60, 1.05 µM. The concentration for half-maximal inhibition (IC50) worked out at 3.45 µM in the assay with Raji [2], 2.85 µM in the assay on HeLa and 0.89 µM in the assay on K562 [3].
Regarding `O=C(/C=C/c1ccc(F)cc1)O[C@H](c1cccs1)[C@H]1O[C@@H]2CC(=O)O[C@@H]2[C@H]1O`, the IC50 with MCF7 is 10.5 µM; with Jurkat, 19.7 µM; with A549 [1], 13.3 µM; with MRC5, over 100 µM; in the assay on MDA-MB-231, 2.11 µM; with HL-60, 18.9 µM. The IC50 was found to be 23.9 µM in the assay with Raji [2], 4.63 µM with HeLa and 6.56 µM with K562 [3].
As to `O=C1C[C@H]2O[C@H]([C@@H](O)c3cccs3)[C@H](O)[C@H]2O1`, the IC50 in the assay with MCF7 stood at 44.9 µM; in the assay on Jurkat, 2.65 µM; with A549 [1], 18.8 µM; in the assay on MRC5 it was 95.6 µM; with MDA-MB-231, 98.8 µM; in the assay with HL-60, 13 µM. Besides, the half-inhibitory concentration (IC50) in the assay on Raji [2] is 15 µM; in the assay on HeLa it was 6.21 µM; with K562 [3], 5.78 µM.
In the case of `O=C1C[C@H]2O[C@@H](C(=O)c3cccs3)[C@H](O)[C@H]2O1`, the 50% inhibitory concentration (IC50) was 1.02 µM in the assay with MCF7; 1.69 µM in the assay on Jurkat; 18.4 µM in the assay on A549 [1]; over 100 µM in the assay on MRC5; 5.21 µM in the assay on MDA-MB-231; 1.09 µM in the assay with HL-60. For the same molecule, the results for the IC50 in the assay on Raji [2], in the assay on HeLa and in the assay with K562 [3] were 5.36 µM, 3.89 µM and 2.67 µM, respectively.
For `O=C1C[C@H]2O[C@H]([C@@H](O)c3ccccc3)[C@H](O)[C@H]2O1`, the Activity was over 55% in the assay with K562 [4], 254.2% in the assay with K562 [5] and 57.3% in the assay with Cell membrane.
`O=C1C[C@H]2O[C@H]([C@H](O)c3cccs3)[C@H](O)[C@H]2O1`: the Activity is 24.2% in the assay with K562 [6]; over 85% in the assay with K562 [4]; 31.2% in the assay with K562 [7]; 196.5% with K562 [5]; 40.6% in the assay on Cell membrane. The half-maximal inhibitory concentration (IC50) in the assay on MCF7 was 3.38 µM; in the assay with Jurkat, 1.01 µM; in the assay on A549 [1] it was 1.2 µM; in the assay on MRC5, over 100 µM; in the assay on MDA-MB-231, 2.88 µM; in the assay on HL-60, 2.07 µM. For the same molecule, the IC50 with Raji [2] is 5.97 µM; in the assay with HeLa it was 0.11 µM; with K562 [3], 0.03 µM. Also, the “Ratio IC50” value with A549 [8] is reported as 4.
On to `O=C(/C=C/c1ccc(F)cc1)O[C@@H]1[C@H]2OC(=O)C[C@H]2O[C@@H]1[C@H](OC(=O)/C=C/c1ccc(F)cc1)c1cccs1`, for which the IC50 is 5.91 µM in the assay with MCF7; 10.7 µM with Jurkat; 9.28 µM in the assay on A549 [1]; over 100 µM with MRC5; 9.55 µM in the assay on MDA-MB-231; 14.7 µM with HL-60. The results for the concentration for half-maximal inhibition (IC50) with Raji [2], with HeLa and in the assay with K562 [3] were 22.1 µM, 4.32 µM and 0.99 µM, respectively.
Regarding `CC1(C)O[C@H]2O[C@H]([C@@H](O)c3cccs3)[C@H](O)[C@H]2O1`, the IC50 was 2.63 µM in the assay with MCF7; 4.41 µM with Jurkat; 6.58 µM with A549 [1]; over 100 µM in the assay on MRC5; 11.6 µM with MDA-MB-231; 8.46 µM in the assay on HL-60. The concentration for half-maximal inhibition (IC50) in the assay with Raji [2] amounted to 1.36 µM; with HeLa, 1.59 µM; in the assay with K562 [3] it was 1.02 µM. Moreover, the “Ratio IC50” value in the assay on Raji [9] was 2.
For the molecule `O=C1C[C@H]2O[C@H]([C@H](O)c3ccccc3)[C@H](O)[C@H]2O1`, the IC50 in the assay with MRC5 and in the assay with HL-60 was over 100 µM in each case. For the same molecule, the values for the Activity with K562 [5] and with Cell membrane were 145.1% and 31.5%, respectively.
With `O=C(/C=C/c1ccccc1)O[C@@H]1[C@H]2OC(=O)C[C@H]2O[C@@H]1[C@H](OC(=O)/C=C/c1ccccc1)c1cccs1`, the IC50 is 10.8 µM in the assay on MCF7; 10.3 µM with Jurkat; 35.6 µM in the assay with A549 [1]; over 100 µM with MRC5; 12.3 µM in the assay with MDA-MB-231; 18.2 µM with HL-60. For the same molecule, the results for the 50% inhibitory concentration (IC50) in the assay on Raji [2], with HeLa and in the assay on K562 [3] were 11.1 µM, 23.8 µM and 8.36 µM, respectively.
`O=C(c1cccs1)[C@H]1OC(O)[C@H](O)[C@H]1O` (some centres undefined): the IC50 in the assay with MCF7 was 15.6 µM; in the assay with Jurkat, 34 µM; in the assay with A549 [1] it was 5.61 µM; in the assay on MRC5, over 100 µM; with MDA-MB-231 it was 16.3 µM; with HL-60, 8.08 µM. Also, the figures for the IC50 with Raji [2], in the assay on HeLa and in the assay with K562 [3] were 20.5 µM, 5.58 µM and 6.34 µM, respectively.

Values taken from ChEMBL document CHEMBL5500340, “Synthesis and biological activity of thiophene bioisosteres of natural styryl lactone goniofufurone and related compounds” (Eur J Med Chem, 2024).
